Assay results published in patent US8053437B2, “Furo[3. 2-B] pyrrol derivatives” (Amura Therapeutics Limited, priority 2006, dated 2011).

How the values were obtained:
rat osteoclasts = experiment: Rat osteoclast resorption assay; conditions: read-out: Cell-based % Inh. @ 1 μM Rat
Protocol: Bone resorption was studied using a model where mature osteoclasts derived from rat bone were cultured on bovine bone slices for 3 days and allowed to resorb bone in the presence of inhibitor, positive control (E-64) or vehicle. More specifically, tibia, femori and humeri were removed from 1 day old rat pups. The endosteal surfaces of the bones were scraped with a scapelto release osteoclasts into the culture medium and the osteoclasts were allowed to attach to bovine bone slices. After the culture period, bone collagen degradation products were quantified from the culture medium as an index of bone resorption. The assay was performed by Pharmatest Services Ltd, Itilinen Pitkakatu 4C, Turku, Finland.

[1] = Liver microsomal incubations (HLM stability); type: in vitro ADME; conditions: human liver microsomes
Protocol: Human and rat liver microsomes were purchased from BD Gentest (Woburn, Mass., USA) and β-nicotinamide adenine dinucleotide 2′-phosphate reduced tetrasodium salt (NADPH) was purchased from Sigma-Aldrich (Poole, Dorset, UK). All liver microsome incubations were carried out in 50 mM potassium phosphate buffer at pH 7.4, with a final microsomal protein concentration of 0.5 mg/mL. Compounds were taken from 5 mM DMSO stock solutions and diluted in incubation buffer to give a final concentration of […] with a final DMSO concentration of 0.5% v/v. In brief, compounds were added to the incubation buffer along with the liver microsomes and incubated at 37° C. for 10 minutes. The reaction was then initiated by the addition of NADPH, previously dissolved in incubation buffer, to give a final concentration of 1 mM and re-incubated at 37° C. Aliquots were removed at 2 and 60 minutes and quenched with an equal volume of cold acetonitrile. After mixing vigorously, the precipitated protein matter was removed by filtration (Multiscreen Solvinert filter plates, Millipore, Bedford, Mass., USA) and the filtrate analysed by reverse phase HPLC with mass spectrometric detection, using single ion monitoring of the [M+H]^+ species. Metabolic turnover was determined by comparison of peak areas from the ion chromatograms of the parent compound at 2 and 60 minutes and expressed as percent remaining at 1 hour.

[2] = LogD determinations (shake-flask, octanol/PBS); type: physicochemical; conditions: 1-octanol/phosphate buffered saline; pH 7.4; ion-count method
Protocol: LogD(PBS) determinations were performed in 96 well microtitre plates using a miniaturised “shake-flask” method. In brief, compounds were taken from 10 mM DMSO stock solutions and added to wells containing equal volumes of phosphate buffered saline (10 mM; pH 7.4) (PBS) and 1-octanol (Sigma-Aldrich, Poole, Dorset, UK) to give a final concentration of 50 μM. The plates were then capped and mixed vigorously for 1 hour on a microtitre plate shaker, after which they were left to stand, allowing the PBS and octanol phases to separate. The PBS layer was analysed by reverse phase HPLC with mass spectrometric detection, using single ion monitoring of the [M+H]^+ species. LogD(PBS) was determined by comparison of the peak area from the ion chromatogram of the compound in the PBS phase with that of a 50 μM standard of the same compound dissolved in acetonitrile/water (50:50) and calculated using the following formula: […]
Where AUCstd and AUCpbs are the peak areas from the standard and test ion chromatograms respectively.

[3] = Plasma incubations (human plasma stability); type: in vitro ADME; conditions: 37° C.
Protocol: Human and rat plasma were purchased from Innovative Research Inc. (Southfield. MI, USA). Compounds were taken from 5 mM DMSO stock solutions and added to plasma, which had previously been incubated at 37° C., to give a final concentration of 25 μM and re-incubated. Aliquots were removed at 2 and 60 minutes and quenched with an equal volume of cold acetonitrile. After mixing vigorously, the precipitated protein matter was removed by filtration (Multiscreen Solvinert filter plates, Millipore, Bedford, Mass., USA) and the filtrate analysed by reverse phase HPLC with mass spectrometric detection, using single ion monitoring of the [M+H]^+ species. Metabolic turnover was determined by comparison of peak areas from the ion chromatograms of the parent compound at 2 and 60 minutes and expressed as percent remaining at 1 hour: […]

[4] = target: T1, Human recombinant cathepsin K (Homo sapiens, UniProt P43235); experiment: In vitro cathepsin Ki inhibition measurements; type: biochemical; conditions: read-out: In vitro Ki (nM) vs Cath K
T1 construct: purchased B. Turk, Josef, Stefan Institute, Ljubljana, Slovenia
T1 sequence (P43235 115-329): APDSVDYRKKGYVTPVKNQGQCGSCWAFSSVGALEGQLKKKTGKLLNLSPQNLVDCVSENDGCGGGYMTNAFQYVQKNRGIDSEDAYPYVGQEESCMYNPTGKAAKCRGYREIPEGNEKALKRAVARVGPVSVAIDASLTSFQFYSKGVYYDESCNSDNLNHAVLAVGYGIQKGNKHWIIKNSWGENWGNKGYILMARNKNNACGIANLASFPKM
Protocol: Stock solutions of substrate or inhibitor were made up to 10 mM in 100% dimethylsulfoxide (DMSO) (Rathburns, Glasgow, U.K.) and diluted as appropriately required. In all cases the DMSO concentration in the assays was maintained at less than 1% (vol./vol.). The equilibrium inhibition constants (Ki^ss) for each compound were measured under steady-state conditions monitoring enzyme activity as a function of inhibitor concentration. The values were calculated on the assumption of pure competitive behaviour (Cornish-Bowden, A. Fundamentals of enzyme kinetics Portland Press; 1995, 93-128.). Human recombinant cathepsin K (0.25 nM final; B. Turk, Josef, Stefan Institute, Ljubljana, Slovenia), was routinely assayed in 100 mM sodium acetate; pH 5.5 containing 1 mM EDTA, 10 mM L-cysteine and 1.8 μM Z-Leu-Arg-AMC ([S]=KM).
The apparent inhibition constant (Ki) for each compound was determined on the basis that inhibition was reversible and occurred by a pure-competitive mechanism. The Ki values were calculated, from the dependence of enzyme activity as a function of inhibitor concentration, by direct regression analysis (Prism v 3.02) using Equation 2 (Cornish-Bowden, A., 1995).
In situations where the apparent dissociation constant (Ki^app) approached the enzyme concentrations, the Ki^app values were calculated using a quadratic solution in the form described by Equation 3 (Morrison, J. F. Trends Biochem. Sci., 7, 102-105, 1982; Morrison, J. F. Biochim. Biophys. Acta, 185, 269-286, 1969; Stone, S. R. and Hofsteenge, J. Biochemistry, 25, 4622-4628, 1986).
In Equation 3 ‘vi’ is the observed residual activity, ‘F’ is the difference between the maximum activity (i.e. in the absence of inhibitor) and minimum enzyme activity, ‘Eo’ is the total enzyme concentration, ‘Ki^app’ is the apparent dissociation constant and ‘Io’ is the inhibitor concentration. Curves were fitted by non-linear regression analysis (Prism) using a fixed value for the enzyme concentration. Equation 4 was used to account for the substrate kinetics, where ‘Ki’ is the inhibition constant, ‘[So]’ is the initial substrate concentration and ‘KM^app’ is the apparent macroscopic binding (Michaelis) constant for the substrate (Morrison, 1982).

human osteoclasts [5] = experiment: Human osteoclast resorption assay; conditions: human osteoclast activity, read-out: Cell-based % Inh. @ 1 μM Human
Protocol: Bone resorption was studied using a model where human osteoclast precursor cells were cultured on bovine bone slices for 9 days and allowed to differentiate into bone-resorbing osteoclasts. The formed mature osteoclasts were then allowed to resorb bone. The assay was performed by Pharmatest Services Ltd, ItAinen Pitkakatu 4C, Turku, Finland. After the culture period, bone collagen degradation products were quantified from the culture medium as an index of bone resorption. Inhibitor compounds were added into the cell cultures after the differentiation period and their effects on the resorbing activity of mature osteoclasts were determined. The studies included a baseline group without added compounds and a positive control group where a potent cathepsin K inhibitor E-64 was added.
Human peripheral blood monocytes were suspended to culture medium and allowed to attach to bovine bone slices. The bone slices were transferred into 96-well tissue culture plates containing culture medium with appropriate amounts of important growth factors favouring osteoclast differentiation, including M-CSF, RANK-ligand and TGF-β. The cells were incubated in a CO2 incubator in humidified atmosphere of 95% air and 5% carbon dioxide at 37° C. At day 7 when osteoclast differentiation was complete, the culture medium was replaced with culture medium containing conditions favouring osteoclast activity. The cell culture was continued for an additional 2 days, during which the formed mature osteoclasts were allowed to resorb bone in the presence of vehicle, control inhibitor (E64) or test compounds. At the end of the culture, bone collagen degradation products released into the culture medium were determined using a commercially available ELISA method (CrossLaps® for culture, Nordic Bioscience, Herlev, Denmark) as an index of bone resorption (see Bagger, Y. Z., et al, J. Bone. Miner. Res. 14 (suppl. 1), S370).

human osteoclasts [6] = conditions: human osteoclast, literature value; cited from earlier work

HLM % rem. @ 1 hr [1]	logD [2]	Human Plasma Stability % rem. @ 1 hr [3]	Ki [4]	SMILES	inhibition at 1 µM (rat osteoclasts)	inhibition at 1 µM (human osteoclasts [5])	Cell-based % Inh. @ 1 μM Human (Lit.) (human osteoclasts [6])
96%	0.87	95%	4 nM	CN1CCN(c2ccc(C(=O)N[C@@H](CC(C)(C)C)C(=O)N3CC[C@H]4OCC(=O)[C@H]43)cc2)CC1 [Example 3, N—((S)-4,4-dimethyl-1-oxo-1-((3aS,6aR)-3-oxo-dihydro-2H-furo[3,2-b]pyrrol-4(5H,6H,6aH)-yl)pentan-2-yl)-4-(4-methylpiperazin-1-yl)benzamide]	75%	79%	
82%	1.87	92%	12 nM	CCCN1CCN(c2ccc(C(=O)N[C@@H](CC(C)(C)C)C(=O)N3CC[C@H]4OCC(=O)[C@H]43)cc2)CC1 [Example 4, N—((S)-4,4-dimethyl-1-oxo-1-((3aS,6aR)-3-oxo-dihydro-2H-furo[3,2-b]pyrrol-4(5H,6H,6aH)-yl)pentan-2-yl)-4-(4-propylpiperazin-1-yl)benzamide]	72%	75%	
92%	1.51	90%	14 nM	COCCN1CCN(c2ccc(C(=O)N[C@@H](CC(C)(C)C)C(=O)N3CC[C@H]4OCC(=O)[C@H]43)cc2)CC1 [Example 5, N—((S)-4,4-dimethyl-1-oxo-1-((3aS,6aR)-3-oxo-dihydro-2H-furo[3,2-b]pyrrol-4(5H,6H,6aH)-yl)pentan-2-yl)-4-(4-(2-methoxyethyl)piperazin-1-yl)benzamide]	79%	72%	
89%	0.81	93%	6 nM	CN1CCN(c2ccc(C(=O)N[C@H](C(=O)N3CC[C@H]4OCC(=O)[C@H]43)C(C)(C)C)cc2)CC1 [Example 8, N—((S)-3,3-dimethyl-1-oxo-1-((3aS,6aR)-3-oxo-dihydro-2H-furo[3,2-b]pyrrol-4(5H,6H,6aH)-yl)butan-2-yl)-4-(4-methylpiperazin-1-yl)benzamide]	20%	82%	

Second part, the molecule before the results:

SMILES	HLM % rem. @ 1 hr [1]	logD [2]	Human Plasma Stability % rem. @ 1 hr [3]	Ki [4]	inhibition at 1 µM (rat osteoclasts)	inhibition at 1 µM (human osteoclasts [5])	Cell-based % Inh. @ 1 μM Human (Lit.) (human osteoclasts [6])
CCC(C)[C@H](NC(=O)c1ccc(N2CCN(C)CC2)cc1)C(=O)N1CC[C@H]2OCC(=O)[C@H]21 (stereo in doubt) [Example 9, N-((2S,3S)-3-methyl-1-oxo-1-((3aS,6aR)-3-oxodihydro-2H-furo [3,2-b]pyrrol-4(5H,6H,6aH)-yl)pentan-2-yl)-4-(4-methylpiperazin-1-yl)benzamide]	94%	1.15	91%	5 nM	10%	77%	
CC(C)C[C@H](NC(=O)c1ccc(N2CCN(C)CC2)cc1)C(=O)N1CC[C@H]2OCC(=O)[C@H]21 [Example 1, reference compound]	95%		95%		43%	55%	
CCN1CCN(c2ccc(C(=O)N[C@@H](CC(C)C)C(=O)N3CC[C@H]4OCC(=O)[C@H]43)cc2)CC1 [Example 2, 4-(4-ethylpiperazin-1-yl)-N—((S)-4-methyl-1-oxo-1-((3aS,6aR)-3-oxodihydro-2H-furo[3,2-b]pyrrol-4(5H,6H,6aH)-yl)pentan-2-yl)benzamide, reference compound]	88%		93%		40%	58%	
CC(C)C[C@H](NC(=O)c1ccc(C(C)(C)C)cc1)C(=O)N1CC[C@H]2OCC(=O)[C@H]21 [Prior art compound 23, reference compound]	70%		75%				Lit. 60%
